Key:
AVEFA = assay: Post-emergence herbicidal action against AVEFA; type: in vivo, Avena fatua; settings: application rate 80 g/ha, rated visually after about 3 weeks
Method in brief: (§1)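 Visual rating of activity (0% = as untreated control, 100% = plants dead) about 3 weeks after treatment. Plants were sprayed at the one-leaf stage, 2 to 3 weeks post-sowing in sandy loam, with WP or EC formulations plus 0.5% additive at 600 l/ha water.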

HORMU = assay: Post-emergence herbicidal action against HORMU; type: in vivo, Hordeum murinum; settings: application rate 80 g/ha
Method in brief: as §1

STEME = assay: Post-emergence herbicidal action against STEME; type: in vivo, Stellaria media; settings: application rate 80 g/ha, rated visually about 3 weeks after treatment
Method in brief: as §1

ALOMY = assay: Post-emergence herbicidal action against ALOMY; type: in vivo, Alopecurus myosuroides; settings: application rate 80 g/ha, rated visually after about 3 weeks
Method in brief: as §1

ECHCG = assay: Post-emergence herbicidal action against ECHCG; type: in vivo, Echinochloa crus-galli; settings: application rate 80 g/ha, rated visually after about 3 weeks
Method in brief: as §1

ABUTH = assay: Post-emergence herbicidal action against ABUTH; type: in vivo, Abutilon theophrasti; settings: application rate 80 g/ha, rated visually about 3 weeks after treatment
Method in brief: as §1

LOLRI = assay: Post-emergence herbicidal action against LOLRI; type: in vivo, Lolium rigidum; settings: application rate 80 g/ha, rated visually after about 3 weeks
Method in brief: as §1

MATIN = assay: Post-emergence herbicidal action against MATIN; type: in vivo, Matricaria inodora; settings: application rate 80 g/ha, rated visually about 3 weeks after treatment
Protocol: [table] 2. Post-emergence herbicidal action against harmful plants and crop plant compatibility Seeds of monocotyledonous and dicotyledonous weeds and crop plants are placed in sandy loam in plastic or wood-fibre pots, covered with soil and cultivated in a greenhouse under controlled growth conditions. 2 to 3 weeks after sowing, the test plants are treated at the one-leaf stage. The compounds of the invention, formulated in the form of wettable powders (WP) or as emulsion concentrates (EC), are then sprayed onto the green parts of the plants as aqueous suspension or emulsion with addition of 0.5% additive at a water application rate of 600 l/ha (converted). After the test plants have been kept in the greenhouse under optimum growth conditions for about 3 weeks, the activity of the preparations is rated visually in comparison to untreated controls. For example, 100% activity=the plants have died, 0% activity=like control plants.

VERPE = assay: Post-emergence herbicidal action against VERPE; type: in vivo, Veronica persica; settings: application rate 80 g/ha
Method in brief: as §1

SETVI = assay: Post-emergence herbicidal action against SETVI; type: in vivo, Setaria viridis; settings: application rate 80 g/ha, rated visually after about 3 weeks
Method in brief: as §1

POLCO = assay: Post-emergence herbicidal action against POLCO; type: in vivo, Polygonum convolvulus; settings: application rate 80 g/ha, rated visually about 3 weeks after treatment
Method in brief: as §1

PHBPU = assay: Post-emergence herbicidal action against PHBPU; type: in vivo, Pharbitis purpurea; settings: application rate 80 g/ha, rated visually about 3 weeks after treatment
Method in brief: as §1

AMARE = assay: Post-emergence herbicidal action against AMARE; type: in vivo, Amaranthus retroflexus; settings: application rate 80 g/ha, rated visually about 3 weeks after treatment
Method in brief: as §1

CCOC(=O)C1C=CC(NC(=O)C2(C(F)(F)F)CC(c3cccc(Cl)c3)=NO2)C1 (mixture of isomers) [Example I-042]
Herbicidal action against [%] AVEFA (AVEFA): 100% | Herbicidal action against [%] HORMU (HORMU): 90% | Herbicidal action against [%] STEME (STEME): 90% | Herbicidal action against [%] ALOMY (ALOMY): 100% | Herbicidal action against [%] ECHCG (ECHCG): 90% | Herbicidal action against [%] ABUTH (ABUTH): 80% | Herbicidal action against [%] LOLRI (LOLRI): 100% | Herbicidal action against [%] MATIN (MATIN): 80% | Herbicidal action against [%] VERPE (VERPE): 80% | Herbicidal action against [%] SETVI (SETVI): 80%

CCOC(=O)C1C=CC(NC(=O)C2(C)CC(c3cc(F)cc(F)c3)=NO2)C1 (mixture of isomers) [Example I-059]
Herbicidal action against [%] POLCO (POLCO): 80% | Herbicidal action against [%] AVEFA (AVEFA): 100% | Herbicidal action against [%] HORMU (HORMU): 90% | Herbicidal action against [%] STEME (STEME): 90% | Herbicidal action against [%] ALOMY (ALOMY): 90% | Herbicidal action against [%] ECHCG (ECHCG): 100% | Herbicidal action against [%] PHBPU (PHBPU): 80% | Herbicidal action against [%] LOLRI (LOLRI): 100% | Herbicidal action against [%] MATIN (MATIN): 90% | Herbicidal action against [%] AMARE (AMARE): 80% | Herbicidal action against [%] VERPE (VERPE): 80% | Herbicidal action against [%] SETVI (SETVI): 90%

CCOC(=O)C1C=CC(NC(=O)C2(C(F)(F)F)CC(c3cc(C)cc(C)c3)=NO2)C1 (mixture of isomers) [Example I-053]
Herbicidal action against [%] AVEFA (AVEFA): 90% | Herbicidal action against [%] STEME (STEME): 90% | Herbicidal action against [%] ALOMY (ALOMY): 90% | Herbicidal action against [%] PHBPU (PHBPU): 80% | Herbicidal action against [%] LOLRI (LOLRI): 90% | Herbicidal action against [%] MATIN (MATIN): 80% | Herbicidal action against [%] VERPE (VERPE): 80%

O=C(OCCCl)C1C=CC(NC(=O)C2(C(F)(F)F)CC(c3cc(Cl)cc(Cl)c3)=NO2)C1 (mixture of isomers) [Example I-040]
Herbicidal action against [%] AVEFA (AVEFA): 90% | Herbicidal action against [%] HORMU (HORMU): 90% | Herbicidal action against [%] STEME (STEME): 90% | Herbicidal action against [%] ALOMY (ALOMY): 90% | Herbicidal action against [%] ECHCG (ECHCG): 90% | Herbicidal action against [%] ABUTH (ABUTH): 80% | Herbicidal action against [%] LOLRI (LOLRI): 90% | Herbicidal action against [%] MATIN (MATIN): 80% | Herbicidal action against [%] VERPE (VERPE): 80%

CCOC(=O)C1C=CC(NC(=O)C2(C#N)CC(c3cc(F)cc(F)c3)=NO2)C1 (stereo not drawn) [Example I-104]
Herbicidal action against [%] POLCO (POLCO): 90% | Herbicidal action against [%] AVEFA (AVEFA): 80% | Herbicidal action against [%] HORMU (HORMU): 90% | Herbicidal action against [%] STEME (STEME): 80% | Herbicidal action against [%] ALOMY (ALOMY): 90% | Herbicidal action against [%] ECHCG (ECHCG): 80% | Herbicidal action against [%] LOLRI (LOLRI): 90% | Herbicidal action against [%] MATIN (MATIN): 80% | Herbicidal action against [%] AMARE (AMARE): 80% | Herbicidal action against [%] VERPE (VERPE): 80%

O=C(OCC(F)(F)F)C1C=CC(NC(=O)C2(C(F)(F)F)CC(c3cc(Cl)cc(Cl)c3)=NO2)C1 (mixture of isomers) [Example I-041]
Herbicidal action against [%] AVEFA (AVEFA): 90% | Herbicidal action against [%] HORMU (HORMU): 90% | Herbicidal action against [%] STEME (STEME): 80% | Herbicidal action against [%] ECHCG (ECHCG): 80% | Herbicidal action against [%] ABUTH (ABUTH): 80% | Herbicidal action against [%] LOLRI (LOLRI): 80% | Herbicidal action against [%] MATIN (MATIN): 80%

C=CC1(C(=O)N[C@H]2C=C[C@@H](C(=O)OCCOC)C2)CC(c2cc(F)cc(F)c2)=NO1 (stereo partly drawn) [Example I-018]
Herbicidal action against [%] POLCO (POLCO): 100% | Herbicidal action against [%] AVEFA (AVEFA): 100% | Herbicidal action against [%] HORMU (HORMU): 90% | Herbicidal action against [%] ALOMY (ALOMY): 100% | Herbicidal action against [%] ECHCG (ECHCG): 100% | Herbicidal action against [%] ABUTH (ABUTH): 90% | Herbicidal action against [%] LOLRI (LOLRI): 100% | Herbicidal action against [%] MATIN (MATIN): 80% | Herbicidal action against [%] AMARE (AMARE): 90% | Herbicidal action against [%] VERPE (VERPE): 90% | Herbicidal action against [%] SETVI (SETVI): 90%

COC(=O)C1C=CC(NC(=O)C2(C(F)(F)F)CC(c3cccc(Cl)c3)=NO2)C1 (mixture of isomers) [Example I-046]
Herbicidal action against [%] AVEFA (AVEFA): 90% | Herbicidal action against [%] HORMU (HORMU): 100% | Herbicidal action against [%] STEME (STEME): 90% | Herbicidal action against [%] ALOMY (ALOMY): 90% | Herbicidal action against [%] ECHCG (ECHCG): 90% | Herbicidal action against [%] ABUTH (ABUTH): 90% | Herbicidal action against [%] LOLRI (LOLRI): 100% | Herbicidal action against [%] MATIN (MATIN): 80% | Herbicidal action against [%] AMARE (AMARE): 80% | Herbicidal action against [%] VERPE (VERPE): 80% | Herbicidal action against [%] SETVI (SETVI): 80%

Cc1cc(F)cc(C2=NOC(C(=O)N[C@H]3C=C[C@@H](C(=O)OCCCl)C3)(C(F)(F)F)C2)c1 (stereo partly drawn) [Example I-031]
Herbicidal action against [%] POLCO (POLCO): 90% | Herbicidal action against [%] AVEFA (AVEFA): 90% | Herbicidal action against [%] HORMU (HORMU): 90% | Herbicidal action against [%] ALOMY (ALOMY): 90% | Herbicidal action against [%] ECHCG (ECHCG): 80% | Herbicidal action against [%] PHBPU (PHBPU): 80% | Herbicidal action against [%] LOLRI (LOLRI): 100% | Herbicidal action against [%] MATIN (MATIN): 80% | Herbicidal action against [%] AMARE (AMARE): 90% | Herbicidal action against [%] VERPE (VERPE): 80% | Herbicidal action against [%] SETVI (SETVI): 90%

C=CC1(C(=O)NC2C=CC(C(=O)O)C2)CC(c2cc(F)cc(F)c2)=NO1 (stereo not drawn) [Example I-011]
Herbicidal action against [%] POLCO (POLCO): 80% | Herbicidal action against [%] AVEFA (AVEFA): 90% | Herbicidal action against [%] HORMU (HORMU): 80% | Herbicidal action against [%] STEME (STEME): 90% | Herbicidal action against [%] ALOMY (ALOMY): 90% | Herbicidal action against [%] ECHCG (ECHCG): 90% | Herbicidal action against [%] LOLRI (LOLRI): 90% | Herbicidal action against [%] MATIN (MATIN): 80% | Herbicidal action against [%] VERPE (VERPE): 80% | Herbicidal action against [%] SETVI (SETVI): 80%

COC(=O)C1C=CC(NC(=O)C2(C(F)(F)F)CC(c3cc(C)cc(C(F)(F)F)c3)=NO2)C1 (mixture of isomers) [Example I-048]
Herbicidal action against [%] AVEFA (AVEFA): 90% | Herbicidal action against [%] HORMU (HORMU): 90% | Herbicidal action against [%] STEME (STEME): 90% | Herbicidal action against [%] ALOMY (ALOMY): 100% | Herbicidal action against [%] ECHCG (ECHCG): 80% | Herbicidal action against [%] ABUTH (ABUTH): 80% | Herbicidal action against [%] PHBPU (PHBPU): 80% | Herbicidal action against [%] LOLRI (LOLRI): 80% | Herbicidal action against [%] MATIN (MATIN): 80% | Herbicidal action against [%] VERPE (VERPE): 80%

Reference: patent US12319664B2, “Herbicidally active 3-phenylisoxazoline-5-carboxamides of cyclopentenylcarboxylic acid derivatives” (Bayer Aktiengesellschaft, priority 2018, dated 2025)
